Results: article PMC11477289, “Low-Basicity 5-HT6 Receptor Ligands from the Group of Cyclic Arylguanidine Derivatives and Their Antiproliferative Activity Evaluation” (International Journal of Molecular Sciences, 2024)

Legend:
[1] = Chromatographic hydrophobicity index on C18 column (lipophilicity); assay type: physicochemical
Description: (§1) We began with an assay for lipophilicity, affinity for phospholipids (for 40 compounds), and drug binding to human serum albumin (HSA) (for 20 compounds), using chromatographic protocols developed by Valko [46] and implemented in our laboratory [47]. […] These methods allowed the determination of chromatographic hydrophobicity indices (CHIs), binding to HSA (%HSA), and phospholipids (CHIIAM) using a single-gradient elution experiment and comparison to reference substances.

[2] = tested on: MCF7 breast carcinoma cell line; test: Antiproliferative activity (MTS), MCF7; settings: Homo sapiens, MCF7, 72 h, read-out: IC50 Values MCF7
[3] = Affinity to phospholipids, IAM column (CHI IAM); assay type: physicochemical; settings: IAM.PC.DD2 column, pH 7.4
Description: as §1

[4] = molecular target: human serum albumin (HSA) (Homo sapiens, UniProt P02768); test: Binding to HSA, Chiralpak HSA column; settings: Chiralpak HSA column
human serum albumin (HSA), sequence (P02768 25-609): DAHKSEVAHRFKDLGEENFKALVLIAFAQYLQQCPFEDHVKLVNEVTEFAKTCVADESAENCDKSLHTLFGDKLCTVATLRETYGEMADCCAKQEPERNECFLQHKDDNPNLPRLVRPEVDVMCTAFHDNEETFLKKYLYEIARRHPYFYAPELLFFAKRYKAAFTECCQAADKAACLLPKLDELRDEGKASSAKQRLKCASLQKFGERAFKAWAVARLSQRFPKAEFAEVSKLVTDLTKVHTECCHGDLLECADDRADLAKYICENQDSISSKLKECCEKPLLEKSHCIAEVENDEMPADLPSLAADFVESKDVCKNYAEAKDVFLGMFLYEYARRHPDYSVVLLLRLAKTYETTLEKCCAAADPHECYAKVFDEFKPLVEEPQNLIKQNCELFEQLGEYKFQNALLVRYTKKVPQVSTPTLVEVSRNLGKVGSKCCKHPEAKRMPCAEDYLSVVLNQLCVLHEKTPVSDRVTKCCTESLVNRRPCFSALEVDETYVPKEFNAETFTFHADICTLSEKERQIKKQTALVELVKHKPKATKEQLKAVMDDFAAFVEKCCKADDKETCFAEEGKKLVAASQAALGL
Description: We began with an assay for lipophilicity, affinity for phospholipids (for 40 compounds), and drug binding to human serum albumin (HSA) (for 20 compounds), using chromatographic protocols developed by Valko [46] and implemented in our laboratory. Compounds with the highest affinity for 5-HT6R and those showing the most promising ADMET parameters, including the possibility of BBB penetration, DDI, and lipophilicity, determined in silico in SwissADME [45], were selected for testing. These methods allowed the determination of chromatographic hydrophobicity indices (CHIs), binding to HSA (%HSA), and phospholipids (CHIIAM) using a single-gradient elution experiment and comparison to reference substances.
The use of columns modified with plasma proteins, such as HSA, also allows for the estimation of binding to HSA, which is the most dominant plasma protein (PP). Binding to PP affects drug pharmacokinetics, such as distribution, half-life, and clearance.
The mobile phase flow rate was 1.5 mL/min, and the column was maintained at 30 °C. • Chiralpak® HSA (50 mm × 4 mm; 5 µm with safety guard column; Daicel Chiral Technologies, West Chester, PA, USA), mobile phase A: 50 mM ammonium acetate, mobile phase B: HPLC-grade isopropanol (VWR International, Leuven, Belgium). For the first 15 min, the linear gradient from 0 to 20% isopropanol was applied and then held at 20% isopropanol for 12 min. In the last 5 min of the sequence, the mobile phase mixture received a pure ammonium acetate solution. The column temperature was held at 30 °C, whereas the flow rate was 0.9 mL/min.
The reference substances for the calibration of HSA, C18, and IAM columns were purchased, respectively: acetanilide, butyrophenone, diclofenac, and octanonophenone (Alfa Aesar, Haverhill, MA, USA); acetophenone, benzimidazole, colchicine, indole, indometacin, paracetamol, and theophylline (Sigma-Aldrich, Steinheim, Germany); nicardipine and nizatidine (Cayman Chemical, Ann Arbor, MI, USA); carbamazepine, heptanophenone, hexanophenone, propiophenone, and valerophenone (Acros Organic, Pittsburg, PA, USA). Before chromatographic experiments, solutes were dissolved in dimethyl sulfoxide (Avantor Performance Materials Poland S.A., Gliwice, Poland) to obtain a 200 µg/mL concentration. The detection was performed in the UV region at the wavelength from 190 nm to 300 nm. The injected volume was 5 μL, and each compound was analyzed in triplicate.

[5] = tested on: AsPC-1 pancreas adenocarcinoma cell line; test: Antiproliferative activity (MTS), AsPC-1; settings: Homo sapiens, ASPC1, 72 h, read-out: IC50 Values AsPC-1
[6] = tested on: 1321N1 astrocytoma cell line; test: Antiproliferative activity (MTS), 1321N1; settings: Homo sapiens, 1321-N1, 72 h, read-out: IC50 Values 1321N1
[7] = tested on: LN-229 glioblastoma cell line; test: Antiproliferative activity (MTS), LN-229; settings: Homo sapiens, LN-229, 72 h, read-out: IC50 Values LN-229
[8] = molecular target: T1, human 5-HT6 (Homo sapiens, UniProt P50406); test: [3H]-LSD radioligand binding assay, 5-HT6R; settings: HEK293 expressing human 5-HT6R, read-out: 5-HT6 Ki
T1 construct: expressed in transfected cells
T1 sequence (P50406 whole entry): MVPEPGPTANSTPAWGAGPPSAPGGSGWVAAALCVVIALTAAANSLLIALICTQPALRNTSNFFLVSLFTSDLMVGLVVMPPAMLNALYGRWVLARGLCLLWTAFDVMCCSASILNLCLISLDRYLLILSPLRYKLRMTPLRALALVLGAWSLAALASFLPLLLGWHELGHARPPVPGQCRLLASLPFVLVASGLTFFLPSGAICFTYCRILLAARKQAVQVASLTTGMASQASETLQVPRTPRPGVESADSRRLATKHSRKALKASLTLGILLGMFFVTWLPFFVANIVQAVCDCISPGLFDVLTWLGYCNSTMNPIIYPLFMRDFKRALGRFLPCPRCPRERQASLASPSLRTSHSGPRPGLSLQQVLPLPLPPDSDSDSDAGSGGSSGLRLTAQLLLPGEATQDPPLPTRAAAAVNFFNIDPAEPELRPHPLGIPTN
Method: Next, the ligands’ affinity for the 5-HT6 receptors was evaluated in the [^3H]-LSD radioligand binding assay. Experiments were performed in a stable HEK293 cell line expressing the human 5-HT6R.
The pellets were stored at −80 °C.

[9] = tested on: U-251 glioblastoma cells; test: Antiproliferative activity (MTS), U-251; settings: Homo sapiens, U-251, 72 h, read-out: IC50 Values U-251
[10] = tested on: U87MG glioblastoma cells; test: Antiproliferative activity (MTS), U87MG; settings: Homo sapiens, U-87 MG, 72 h, read-out: IC50 Values U87MG
[11] = PAMPA permeability test; assay type: in vitro ADME; settings: PBS pH 7.4, 5 h, room temperature
Method: This test allows the determination of the compound’s passive diffusion through biological membranes.
Precoated PAMPA Plate System Gentest was obtained from Corning (Tewksbury, MA, USA). Test compounds and caffeine solutions (200 µM) were prepared in a PBS buffer (pH = 7.4) and then added to the PAMPA plate. The plate was incubated at room temperature for 5 h without agitation. Then, 150 µL was aspirated from both acceptor (A) and donor (D) wells and then diluted with a 150 µL internal standard (IS) solution. The concentrations of the tested compounds in wells A and D were estimated using an LC/MS Waters ACQUITY™ TQD system with a TQ detector (Waters, Milford, CT, USA). The values of Pe were estimated according to the exact formulas provided by Corning and previously described in the literature.
4. Absorption – PAMPA permeability test
*Permeability coefficient. Compound is permeable if Pe≥1.5×10-6 cm/s
**CFN = caffeine, well-permeable control
UPLC of Caffeine solution in PBS (pH=7.4) after 5h of incubation: acceptor well
(above), donor well (below). IS – internal standard.
UPLC of PR 68 solution in PBS (pH=7.4) after 5h of incubation: acceptor well (above),
donor well (below). IS – internal standard. […]

With O=S(=O)(Nc1nc2ccccc2[nH]1)c1cccc2ccccc12 [PR 11, N -(1H-1,3-benzodiazol-2-yl)naphthalene-1-sulfonamide] the “acid–base properties” value ([1]; comparison of CHI values at different pH levels) was “acidic”, the “CHI C18 pH 2.6” value [1] was 78.8 and the “CHI C18 pH 7.4” value [1] was 76.7. The “CHI C18 pH 10.5” value [1] was 58.4, the IC50 [2] was over 25 µM and the “CHI IAM” value [3] was 39.3. For the same molecule, the “%HSA” value [4] was 95.7%, the logKHSA [4] was 1.3 and the IC50 [5] was over 25 µM. It also gave an IC50 [6] of over 25 µM, an IC50 [7] of over 25 µM and a Ki [8] of 0.325 ± 0.081 µM. The melting point was over 315 °C, the IC50 [9] was over 25 µM and the IC50 [10] was over 25 µM.

In the case of O=S(=O)(NC1=Nc2ccccc2CN1)c1cccc(Cl)c1 [PR 19, 3-chloro-N-(3,4-dihydroquinazolin-2-yl)benzene-1-sulfonamide], the “CHI C18 pH 2.6” value [1] is reported as 83.7, the “CHI C18 pH 7.4” value [1] is reported as 83.2 and the “CHI C18 pH 10.5” value [1] is reported as 87.3. The IC50 [2] was over 25 µM, the “CHI IAM” value [3] was 36.6 and the “%HSA” value [4] was 91.3%. For the same molecule, the logKHSA [4] was 1.0, the IC50 [5] was over 25 µM and the IC50 [6] was over 25 µM. The IC50 [7] was over 25 µM, the Ki [8] was 0.521 ± 0.13 µM and the melting point was 176 to 180 °C. The IC50 [9] was over 25 µM and the IC50 [10] was over 25 µM.

In the case of O=S(=O)(NC1=Nc2ccccc2CN1)c1ccc2c(Cl)cccc2c1 [PR 30, 5-chloro-N-(3,4-dihydroquinazolin-2-yl)naphthalene-2-sulfonamide], the “CHI C18 pH 2.6” value [1] is reported as 99.1, the “CHI C18 pH 7.4” value [1] is reported as 97.7 and the “CHI C18 pH 10.5” value [1] is reported as 100.4. For the same molecule, the IC50 [2] was over 25 µM, the “CHI IAM” value [3] was 45.2 and the IC50 [5] was over 25 µM. For the same molecule, the IC50 [7] was over 25 µM, the Ki [8] was 0.972 ± 0.242 µM and the melting point was 192 to 195 °C. The IC50 [9] was over 25 µM.

In the case of O=S(=O)(NC1=Nc2cccc(Cl)c2CN1)c1ccc(Cl)c2ccccc12 [PR 53, 4-chloro-N-(5-chloro-3,4-dihydroquinazolin-2-yl)naphthalene-1-sulfonamide], the “CHI C18 pH 2.6” value [1] is reported as 111.2, the “CHI C18 pH 7.4” value [1] is reported as 109.2 and the “CHI C18 pH 10.5” value [1] is reported as 112.5. The IC50 [2] was over 25 µM, the “CHI IAM” value [3] was 51.6 and the “%HSA” value [4] was 99.5%. The logKHSA [4] was 1.8, the IC50 [5] was over 25 µM and the IC50 [6] was over 25 µM. The IC50 [7] was over 25 µM, the Ki [8] was 0.189 ± 0.042 µM and the melting point was 217 to 223 °C. For the same molecule, the IC50 [9] was over 25 µM and the IC50 [10] was over 25 µM.

In the case of Cn1c(=O)c2c(ncn2C)n(C)c1=O [caffeine, reference compound], the Papp at 5 h, 200 µM ([11]; PAMPA, read-out: PAMPA Pe) is reported as 8.23 ×10⁻⁶ cm/s and the “PAMPA Pe” value [11] is reported as 8.23 10^−6 cm/s.

For O=S(=O)(NC1=Nc2ccccc2CCN1)c1cccc2ccccc12 [PR 78, N -(4,5-dihydro-3H-1,3-benzodiazepin-2-yl)naphthalene-1-sulfonamide], the IC50 [2] was over 25 µM, the IC50 [5] was over 25 µM and the IC50 [6] was over 25 µM. For the same molecule, the IC50 [7] was over 25 µM, the Ki [8] was 0.273 ± 0.068 µM and the melting point was 178 to 180 °C. It also gave an IC50 [9] of over 25 µM and an IC50 [10] of over 25 µM.

In the case of CC1NC(NS(=O)(=O)c2cccc3ccccc23)=Nc2ccc(Br)cc21 (stereo not drawn) [PR 75, N -(6-bromo-4-methyl-3,4-dihydroquinazolin-2-yl)naphthalene-1-sulfonamide], the “CHI C18 pH 2.6” value [1] is reported as 103.2, the “CHI C18 pH 7.4” value [1] is reported as 101.2 and the “CHI C18 pH 10.5” value [1] is reported as 105.6. For the same molecule, the “CHI IAM” value [3] was 46.3, the “%HSA” value [4] was 98.3% and the logKHSA [4] was 1.6. The IC50 [6] was over 25 µM, the Ki [8] was 0.484 ± 0.121 µM and the melting point was 119 to 123 °C. It also gave an IC50 [10] of over 25 µM.

In the case of O=S(=O)(NC1=Nc2ccccc2CN1)c1c(Cl)ccc2ccccc12 [PR 41, 2-chloro-N-(3,4-dihydroquinazolin-2-yl)naphthalene-1-sulfonamide], the “CHI C18 pH 2.6” value [1] is reported as 95.8, the “CHI C18 pH 7.4” value [1] is reported as 93.1 and the “CHI C18 pH 10.5” value [1] is reported as 96.2. For the same molecule, the “CHI IAM” value [3] was 42.9, the “%HSA” value [4] was 97.1% and the logKHSA [4] was 1.4. It also gave an IC50 [6] of over 25 µM, a Ki [8] of 0.21 ± 0.048 µM and a melting point of 241 to 244 °C. For the same molecule, the IC50 [10] was over 25 µM.

With O=S(=O)(NC1=Nc2ccc(Cl)cc2CN1)c1cccc2ccccc12 [PR 47, N -(6-chloro-3,4-dihydroquinazolin-2-yl)naphthalene-1-sulfonamide] the “CHI C18 pH 2.6” value [1] was 96.5, the “CHI C18 pH 7.4” value [1] was 95.3 and the “CHI C18 pH 10.5” value [1] was 98.1. The “CHI IAM” value [3] was 44.0, the “%HSA” value [4] was 97.8% and the logKHSA [4] was 1.5. For the same molecule, the IC50 [6] was over 25 µM, the Ki [8] was 0.341 ± 0.076 µM and the melting point was 275 to 277 °C. The IC50 [10] was over 25 µM.

For COc1cccc2c1CNC(NS(=O)(=O)c1cccc3ccccc13)=N2 [PR 58, N -(5-methoxy-3,4-dihydroquinazolin-2-yl)naphthalene-1-sulfonamide], the “CHI C18 pH 2.6” value [1] was 92.8, the “CHI C18 pH 7.4” value [1] was 90.8 and the “CHI C18 pH 10.5” value [1] was 96.6. The IC50 [2] was over 25 µM, the “CHI IAM” value [3] was 41.4 and the “%HSA” value [4] was 97.3%. It also gave a logKHSA [4] of 1.4, an IC50 [5] of over 25 µM and an IC50 [6] of over 25 µM. The IC50 [7] was over 25 µM, the Ki [8] was 0.172 ± 0.041 µM and the melting point was 245 to 249 °C. It also gave an IC50 [9] of over 25 µM and an IC50 [10] of over 25 µM.

Work on CC1NC(NS(=O)(=O)c2ccc3ccccc3c2)=Nc2ccc(Br)cc21 (stereo not drawn) [PR 36, N -(6-bromo-4-methyl-3,4-dihydroquinazolin-2-yl)naphthalene-2-sulfonamide] yielded an IC50 [2] of over 25 µM, an IC50 [5] of over 25 µM and an IC50 [6] of over 25 µM. The IC50 [7] was over 25 µM, the Ki [8] was 29.4 ± 7.36 µM and the IC50 [9] was over 25 µM. For the same molecule, the IC50 [10] was over 25 µM.
